Here are results for 28 compounds from patent US7928140B2, “Benzothiazole PI3 kinase modulators for cancer treatment” (Amgen Inc., priority 2007, dated 2011).

Like-named read-outs stand apart in the source and are kept apart here. Bounds are passed on as bounds.

Experiment [1] deals with T1, PI3K β (Homo sapiens, UniProt P42338).
T1 construct: Full length p110 subunits of PI3K α, β and δ, N-terminally labeled with polyHis tag; polyHis (N); made in house; host or cells: Sf9 insect cells (baculovirus)
In words: In vitro PI3 kinase enzyme assay (beta), ATP loss, bioluminescence.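 Further: purified p110β/p85 heterodimer with PtdIns(4,5)P2 as acceptor, incubated at room temperature, leftover ATP read by luminescence, inhibition scaled to compound-free wells with and without enzyme.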 It is filed as biochemical. As to conditions: read-out: PI3Kβ ATP loss IC50.

For experiment [2], the target named is T2, PI3K α (Homo sapiens, UniProt P42336).
T2 construct: Full length p110 subunits of PI3K α, β and δ, N-terminally labeled with polyHis tag; polyHis (N); made in house; host or cells: Sf9 insect cells (baculovirus)
In words: In vitro PI3 kinase enzyme assay (alpha), ATP loss, bioluminescence.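 Further: purified p110α/p85 heterodimer acting on PtdIns(4,5)P2 at room temperature, remaining ATP read by luminescence, inhibition scaled between compound-free wells with and without enzyme.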 It is filed as biochemical. As to conditions: read-out: PI3Kα ATP loss IC50.

Experiment [3] deals with phosphorylation of Serine 473 in Akt, HCT 116 human colon carcinoma cells. In words: Cell-based phospho-AKT Ser473 assay (MSD sandwich immunoassay, IGF-1 stimulated). The method, then: This assay determines the ability of test compounds to inhibit the phosphorylation of […] in Akt using a MSD based sandwich immunoassay (Meso Scale Detection, catalogue # N411CAB-1). […] Prior to the assay cells were detached from the culture flask with trypsin, and re-suspended in complete media to give a final concentration of 1.6×10^5 cells per ml. Aliquots (100 μl) of the HCT116 cell suspension were seeded into each well of a 96 well tissue culture plate (Corning Incorporated COSTAR, catalogue#3595) to give a final density of 16,000 cells per well. Cells were then incubated overnight at 37° C. The following day the cells were treated with serially diluted test compounds and incubated for 2 hours at 37° C. […] As a maximum response control, wells contained 0.5% DMSO in place of test compound. The plates were mixed at 700 rpm for 2 min to ensure even distribution of the test compound and incubated for 2 hours at 37° C. Cells were then stimulated with insulin-like growth factor 1 (Sigma, product #13769) at final concentration of 100 ng/ml for 15 minutes at 37° C. The media was then removed and the cells treated with 80 μl cell-lysis buffer (MSD) containing a cocktail of protease and phosphatase inhibitors for one hour at 4° C. […] The detection antibody was removed and plates were then washed four times with 200 μl per well of Tris wash buffer. An aliquot of 150 μl of diluted MSD read buffer was then applied to each well, and the electrochemiluminescent signal was measured using a MSD SECTORTM plate reader. This instrument measures the intensity of emitted light to determine a quantitative measure of phosphorylated Akt in each well. The dose-response data obtained with each compound were analyzed and the IC50 inhibition of Akt phosphorylation at Ser473 calculated.

The mark [4] stands for this setting: Homo sapiens, HCT-116, HCT 116 cells, read-out: HCT 116 pAKT IC50.

T1 sequence (P42338 whole entry): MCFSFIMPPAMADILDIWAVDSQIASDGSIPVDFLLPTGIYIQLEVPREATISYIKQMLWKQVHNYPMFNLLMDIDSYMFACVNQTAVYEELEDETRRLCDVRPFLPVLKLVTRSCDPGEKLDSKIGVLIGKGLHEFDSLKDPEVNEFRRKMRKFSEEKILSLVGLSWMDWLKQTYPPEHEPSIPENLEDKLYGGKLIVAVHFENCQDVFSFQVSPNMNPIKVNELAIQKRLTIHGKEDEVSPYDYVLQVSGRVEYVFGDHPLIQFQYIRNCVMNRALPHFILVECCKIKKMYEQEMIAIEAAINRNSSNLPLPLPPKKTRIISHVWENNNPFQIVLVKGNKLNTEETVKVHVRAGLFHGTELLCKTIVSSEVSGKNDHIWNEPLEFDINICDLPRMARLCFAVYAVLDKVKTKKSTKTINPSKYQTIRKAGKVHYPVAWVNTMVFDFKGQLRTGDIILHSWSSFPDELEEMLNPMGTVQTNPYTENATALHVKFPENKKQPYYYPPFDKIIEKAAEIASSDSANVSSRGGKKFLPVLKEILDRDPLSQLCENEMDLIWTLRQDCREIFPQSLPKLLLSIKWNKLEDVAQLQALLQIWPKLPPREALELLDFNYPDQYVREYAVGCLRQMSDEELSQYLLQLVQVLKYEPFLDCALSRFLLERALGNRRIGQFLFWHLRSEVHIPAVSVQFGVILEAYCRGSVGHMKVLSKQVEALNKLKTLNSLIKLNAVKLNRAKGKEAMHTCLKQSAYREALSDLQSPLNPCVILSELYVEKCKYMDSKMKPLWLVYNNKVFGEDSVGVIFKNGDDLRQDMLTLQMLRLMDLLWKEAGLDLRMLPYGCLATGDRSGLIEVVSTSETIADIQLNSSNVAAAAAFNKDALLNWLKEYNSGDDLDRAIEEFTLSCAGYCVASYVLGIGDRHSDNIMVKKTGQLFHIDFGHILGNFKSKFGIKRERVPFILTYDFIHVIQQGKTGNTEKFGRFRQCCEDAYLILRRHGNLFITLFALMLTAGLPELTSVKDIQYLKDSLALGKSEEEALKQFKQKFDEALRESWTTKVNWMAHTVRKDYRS
T1 sequence (P27986 whole entry partner): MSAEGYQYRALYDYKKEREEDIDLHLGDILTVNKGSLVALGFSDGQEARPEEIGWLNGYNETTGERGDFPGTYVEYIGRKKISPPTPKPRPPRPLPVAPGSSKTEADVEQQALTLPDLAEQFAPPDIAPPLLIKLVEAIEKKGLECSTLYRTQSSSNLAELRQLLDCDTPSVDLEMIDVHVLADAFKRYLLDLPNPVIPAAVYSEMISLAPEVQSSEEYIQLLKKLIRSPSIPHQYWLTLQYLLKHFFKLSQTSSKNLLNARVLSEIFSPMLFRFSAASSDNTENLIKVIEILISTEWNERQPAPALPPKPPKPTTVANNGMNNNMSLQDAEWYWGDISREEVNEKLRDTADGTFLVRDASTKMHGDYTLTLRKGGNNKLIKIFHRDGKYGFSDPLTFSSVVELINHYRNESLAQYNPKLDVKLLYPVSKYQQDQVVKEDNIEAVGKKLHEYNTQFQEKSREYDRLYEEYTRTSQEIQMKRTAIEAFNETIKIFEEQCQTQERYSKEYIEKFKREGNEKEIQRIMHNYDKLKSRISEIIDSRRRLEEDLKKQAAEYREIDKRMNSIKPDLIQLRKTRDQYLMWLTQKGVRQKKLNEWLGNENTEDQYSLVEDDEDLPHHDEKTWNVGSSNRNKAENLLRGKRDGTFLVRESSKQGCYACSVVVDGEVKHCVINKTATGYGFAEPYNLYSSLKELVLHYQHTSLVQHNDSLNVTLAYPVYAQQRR
T2 sequence (P42336 whole entry, species assumed): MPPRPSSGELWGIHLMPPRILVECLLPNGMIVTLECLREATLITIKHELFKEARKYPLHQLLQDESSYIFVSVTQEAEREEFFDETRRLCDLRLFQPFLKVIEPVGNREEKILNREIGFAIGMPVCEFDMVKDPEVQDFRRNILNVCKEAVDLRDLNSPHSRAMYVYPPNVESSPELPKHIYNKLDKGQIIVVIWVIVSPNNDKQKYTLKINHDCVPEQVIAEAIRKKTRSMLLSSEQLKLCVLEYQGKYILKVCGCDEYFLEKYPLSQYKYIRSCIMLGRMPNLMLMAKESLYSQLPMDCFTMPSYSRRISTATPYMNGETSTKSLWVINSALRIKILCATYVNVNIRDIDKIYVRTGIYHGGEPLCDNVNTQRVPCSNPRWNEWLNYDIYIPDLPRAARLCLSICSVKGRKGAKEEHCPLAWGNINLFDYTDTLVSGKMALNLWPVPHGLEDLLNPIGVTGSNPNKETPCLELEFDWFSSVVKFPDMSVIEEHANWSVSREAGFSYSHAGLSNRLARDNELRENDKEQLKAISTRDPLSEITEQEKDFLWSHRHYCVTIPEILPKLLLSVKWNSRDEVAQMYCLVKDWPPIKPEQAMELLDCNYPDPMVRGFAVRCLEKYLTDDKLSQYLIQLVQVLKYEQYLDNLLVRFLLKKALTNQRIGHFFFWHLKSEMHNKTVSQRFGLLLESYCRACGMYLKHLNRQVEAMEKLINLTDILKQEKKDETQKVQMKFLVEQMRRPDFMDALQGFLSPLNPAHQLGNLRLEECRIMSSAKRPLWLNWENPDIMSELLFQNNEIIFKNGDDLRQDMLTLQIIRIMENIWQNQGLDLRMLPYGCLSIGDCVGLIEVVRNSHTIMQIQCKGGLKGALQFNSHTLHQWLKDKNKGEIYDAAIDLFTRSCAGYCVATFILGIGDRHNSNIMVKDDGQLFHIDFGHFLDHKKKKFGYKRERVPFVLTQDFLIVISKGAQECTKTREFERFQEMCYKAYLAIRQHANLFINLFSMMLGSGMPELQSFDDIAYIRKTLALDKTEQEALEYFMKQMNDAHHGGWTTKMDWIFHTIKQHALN
T2 sequence (P27986 whole entry partner, species assumed): as the sequence (P27986 whole entry partner) above

Regarding `CC(=O)Nc1nc2ccc(-c3ccnc(Sc4cccc(C)c4)n3)cc2s1` [Example 35, N-(6-(2-((3-methylphenyl)sulfanyl)-4-pyrimidinyl)-1,3-benzothiazol-2-yl)acetamide], the IC50 in experiment [1] was 1060 nM; in experiment [2] it was 57.6 nM; in experiment [3] (setting [4]), 3580 nM.
For `CCc1ccc(S(=O)(=O)Nc2nccc(-c3ccc4nc(NC(C)=O)sc4c3)n2)cc1` [Example 84, N-(6-(2-(((4-ethylphenyl)sulfonyl)amino)-4-pyrimidinyl)-1,3-benzothiazol-2-yl)acetamide], in that order: 79.3 nM, 21.8 nM and 174 nM.
`CC(=O)Nc1nc2ccc(-c3ccnc(OC(C)C)n3)cc2s1` [Example 6, N-(6-(2-(1-methylethoxy)-4-pyrimidinyl)-1,3-benzothiazol-2-yl)acetamide]: the IC50 in experiment [1] was 2140 nM; in experiment [2] it was 240 nM; in experiment [3] (setting [4]), 920 nM.
As to `COc1ccc(S(=O)(=O)Nc2nccc(-c3cc(F)c4nc(NC(C)=O)sc4c3)n2)cc1` [Example 131, N-(4-fluoro-6-(2-(((4-methoxyphenyl)sulfonyl)amino)-4-pyrimidinyl)-1,3-benzothiazol-2-yl)acetamide], the IC50 in experiment [1] was 126 nM; in experiment [2], 41.3 nM; in experiment [3] (setting [4]) it was 1800 nM.
`COc1ccc(S(=O)(=O)Nc2cccc(-c3ccc4nc(NC(C)=O)sc4n3)c2)cc1` [Example 146, N-(5-(3-(4-methoxyphenylsulfonamido)phenyl)thiazolo[5,4-b]pyridin-2-yl)acetamide]: the IC50 stood at 359 nM in experiment [1]; 117 nM in experiment [2]; 373 nM in experiment [3] (Homo sapiens, HCT-116, read-out: HCT 116 pAKT IC50).
As for `CC(=O)Nc1nc2ccc(-c3cnc(Cl)c(NS(=O)(=O)c4cccs4)c3)cc2s1` [Example 186, N-(6-(6-chloro-5-(thiophene-2-sulfonamido)pyridin-3-yl)benzo[d]thiazol-2-yl)acetamide], the IC50 in experiment [1] turned out to be 14.3 nM; in experiment [2], 6.6 nM; in experiment [3] (setting [4]), 15.6 nM.
For `CC(=O)Nc1nc2ccc(-c3ccnc(Sc4ccccc4F)n3)cc2s1` [Example 23, N-(6-(2-((2-fluorophenyl)sulfanyl)-4-pyrimidinyl)-1,3-benzothiazol-2-yl)acetamide], in that order: 307 nM, 62.3 nM and 350 nM.
With `COCCNc1nccc(-c2ccc3nc(NC(C)=O)sc3c2)n1` [Example 47, N-(6-(2-((2-methoxyethyl)amino)-4-pyrimidinyl)-1,3-benzothiazol-2-yl)acetamide], the IC50 in experiment [1] came to 18400 nM; in experiment [2], 696 nM; in experiment [3] (setting [4]), 1150 nM.
As to `CC(=O)Nc1nc2ccc(-c3cnc(Cl)c(F)c3)cc2s1` [Example 238, N-(6-(6-chloro-5-fluoropyridin-3-yl)benzo[d]thiazol-2-yl)acetamide], the figures for the IC50 in experiment [2] and in experiment [3] (setting [4]) were 250 nM and 1490 nM, respectively.
Take `CC(=O)Nc1nc2ccc(-c3ccnc(N(C)S(=O)(=O)c4ccc(C)cc4)n3)cc2s1` [Example 90, N-(6-(2-(N,4-Dimethylphenylsulfonamido)pyrimidin-4-yl)benzo[d]thiazol-2-yl)acetamide]: the half-inhibitory concentration (IC50) came to 48.8 nM in experiment [1] and 51.6 nM in experiment [3] (setting [4]).
Consider `CC(=O)Nc1nc2ccc(-c3ccnc(SCc4ccccc4)n3)cc2s1` [Example 19, N-(6-(2-(benzylsulfanyl)-4-pyrimidinyl)-1,3-benzothiazol-2-yl)acetamide], for which the values for the IC50 in experiment [1] and in experiment [3] (setting [4]) were 184 nM and 670 nM, respectively.
For `CC(=O)Nc1nc2ccc(-c3ccnc(NS(=O)(=O)c4ccccc4F)n3)cc2s1` [Example 81, N-(6-(2-(((2-fluorophenyl)sulfonyl)amino)-4-pyrimidinyl)-1,3-benzothiazol-2-yl)acetamide], the IC50 in experiment [1] was found to be 103 nM; in experiment [3] (setting [4]), 4950 nM.
For `COc1ccc(S(=O)(=O)Nc2cc(-c3ccc4nc(NC(C)=O)sc4c3)ccn2)cc1` [Example 217, N-(6-(2-(4-methoxyphenylsulfonamido)pyridin-4-yl)benzo[d]thiazol-2-yl)acetamide], in that order: 117 nM and 71.1 nM.
As to `CCN(c1nccc(-c2ccc3nc(NC(C)=O)sc3c2)n1)S(=O)(=O)c1ccc(OC)cc1` [Example 89, N-(6-(2-(N-Ethyl-4-methoxyphenylsulfonamido)pyrimidin-4-yl)benzo[d]thiazol-2-yl)acetamide], the results for the IC50 in experiment [1] and in experiment [3] (setting [4]) were 442 nM and 692 nM, respectively.
For `CC(=O)Nc1nc2ccc(-c3cnc(Cl)c(NS(=O)(=O)c4cccc(C(C)(C)C)c4)c3)cc2s1` [Example 173, N-(6-(5-(3-tert-butylphenylsulfonamido)-6-chloropyridin-3-yl)benzo[d]thiazol-2-yl)acetamide], in that order: 6.9 nM and 5.1 nM.
Taken in the same sequence, the figures for `COc1ccc(S(=O)(=O)Nc2cncc(-c3ccc4nc(NC(C)=O)sc4c3)c2)cc1` [Example 195, N-(6-(5-(4-methoxyphenylsulfonamido)pyridin-3-yl)benzo[d]thiazol-2-yl)acetamide] were 21.7 nM and 32.8 nM.
As to `COc1cc(-c2ccc3nc(NC(C)=O)sc3c2)cnc1Br` [Example 237, N-(6-(6-bromo-5-methoxypyridin-3-yl)benzo[d]thiazol-2-yl)acetamide], the IC50 was 8370 nM in experiment [2] and over 5000 nM in experiment [3] (setting [4]).
Turning to `CC(=O)Nc1nc2ccc(-c3cnc(Cl)c(NS(=O)(=O)c4ccc(C(F)(F)F)cc4)c3)cc2s1` [Example 190, N-(6-(6-chloro-5-(4-(trifluoromethyl)phenylsulfonamido)pyridin-3-yl)benzo[d]thiazol-2-yl)acetamide], the IC50 in experiment [1] came to 7.4 nM; in experiment [3] (setting [4]), 11.5 nM.
With `CC(=O)Nc1nc2ccc(-c3cnc(Cl)c(NS(=O)(=O)c4cccc(C(F)(F)F)c4)c3)cc2s1` [Example 172, N-(6-(6-chloro-5-(3-(trifluoromethyl)phenylsulfonamido)pyridin-3-yl)benzo[d]thiazol-2-yl)acetamide], the IC50 in experiment [1] was determined as 6.9 nM; in experiment [3] (setting [4]), 7 nM.
For the compound `COc1ccc(S(=O)(=O)Nc2cc(-c3ccc4nc(NC(C)=O)sc4c3)cnc2C)cc1` [Example 116, N-(6-(5-(((4-methoxyphenyl)sulfonyl)amino)-6-methyl-3-pyridinyl)-1,3-benzothiazol-2-yl)acetamide], the IC50 is 12 nM in experiment [1] and 9.3 nM in experiment [3] (setting [4]).
On to “N-(6-(2-(3-morpholino)propoxy)-4-pyrimidinyl)-1,3-benzothiazol-2-yl)acetamide [Example 10]”, for which the IC50 in experiment [1] stood at 11000 nM; in experiment [3] (HCT 116 cells, read-out: HCT 116 pAKT IC50), 801 nM.
In the case of `CC(=O)Nc1nc2ccc(-c3ccnc(NS(=O)(=O)c4cccc(F)c4)n3)cc2s1` [Example 82, N-(6-(2-(((3-fluorophenyl)sulfonyl)amino)-4-pyrimidinyl)-1,3-benzothiazol-2-yl)acetamide], the IC50 was 304 nM in experiment [1] and 3900 nM in experiment [3] (setting [4]).
On to `COc1ccc(S(=O)(=O)Nc2cncc(-c3ccc4nc(NC(C)=O)sc4c3)n2)cc1` [Example 118, N-(6-(6-(((4-methoxyphenyl)sulfonyl)amino)-2-pyrazinyl)-1,3-benzothiazol-2-yl)acetamide], for which the IC50 in experiment [1] turned out to be 17.9 nM; in experiment [3] (setting [4]), 147 nM.
For `CC(=O)Nc1nc2ccc(-c3ccnc(OCc4cccc(F)c4)n3)cc2s1` [Example 12, N-(6-(2-((3-fluorobenzyl)oxy)-4-pyrimidinyl)-1,3-benzothiazol-2-yl)acetamide], in that order: 3960 nM and 3930 nM.
`CC(=O)Nc1nc2ccc(-c3cnc(Cl)c(NS(=O)(=O)c4cccc(F)c4)c3)cc2s1` [Example 183, N-(6-(6-chloro-5-(3-fluorophenylsulfonamido)pyridin-3-yl)benzo[d]thiazol-2-yl)acetamide]: the IC50 in experiment [1] was 10.4 nM; in experiment [3] (setting [4]), 16.9 nM.
On to `CSc1nccc(-c2ccc3nc(NC(C)=O)sc3c2)n1` [Example 50, N-(6-(2-(methylsulfanyl)-4-pyrimidinyl)-1,3-benzothiazol-2-yl)acetamide], for which the IC50 is 1180 nM in experiment [1] and 1050 nM in experiment [3] (setting [4]).
Take `CC(=O)Nc1nc2ccc(-c3ccnc(Sc4cccc(F)c4)n3)cc2s1` [Example 109, N-(6-(2-((3-fluorophenyl)sulfanyl)-4-pyrimidinyl)-1,3-benzothiazol-2-yl)acetamide]: the IC50 was 120 nM in experiment [1] and 1840 nM in experiment [3] (setting [4]).
In the case of `CC(=O)Nc1nc2ccc(-c3ccnc(OCCCc4cccnc4)n3)cc2s1` [Example 1, N-(6-(2-(3-(pyridin-3-yl)propoxy)pyrimidin-4-yl)benzo[d]thiazol-2-yl)acetamide], the IC50 in experiment [1] is 3610 nM; in experiment [3] (setting [4]), 1350 nM.
